The source of these data is patent publication US20240344082A1, “VIRAL […] USE IN ENHANCING T-CELL PRIMING DURING VACCINATION” (GeoVax, Inc., priority 2021, published 2024).

The test system of assay [1] is splenic PyCS-specific, IFN-γ-secreting CD8+ T cells. Details: species or system mice. The conditions noted are these: mouse, in vivo, sc.
Assay [2] concerns antigen-specific CD8+ T-cell expansion. The conditions noted are these: in combination with adenovirus-based or irradiated sporozoite-based malaria vaccine; immune-competent mice; cited from earlier work.

For “CRRTSTGQISTLRVNITAPLSQ [LD01, synthetic peptide used as positive control]”, the “antigen-specific CD8+ T cell numbers relative to AdPyCS alone” value in assay [1] is given as “significantly increased”. Besides, the “antigen-specific CD8+ T-cell expansion” value in assay [2] is reported as “enhances”.
